Test results as given in PMC5743070 (The Journal of Biological Chemistry, 2017).

Target: T1, TTD–PHD (UHRF1_126–366) (Homo sapiens, UniProt Q96T88)
T1 construct: His tag (TEV-cleavable) (N); made in house
T1 sequence (Q96T88 126-366): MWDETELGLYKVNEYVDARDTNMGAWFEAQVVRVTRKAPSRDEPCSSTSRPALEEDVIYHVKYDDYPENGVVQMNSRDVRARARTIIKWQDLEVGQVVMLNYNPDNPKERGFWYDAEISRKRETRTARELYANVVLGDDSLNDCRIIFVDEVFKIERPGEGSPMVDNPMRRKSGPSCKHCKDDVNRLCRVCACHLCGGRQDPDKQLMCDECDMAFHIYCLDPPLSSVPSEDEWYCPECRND
Test: SAXS of TTD–PHD in the presence of BPC
Experimental: All SAXS samples were buffered in 20 mM Tris (pH 7.5), 150 mM NaCl, 5 mM DTT, 5 mM β-mercaptoethanol, 2 mM TCEP and 10 μM ZnCl2, and data were collected at concentrations ranging from ∼1 to 5 mg/ml. Measurements were carried out at Beamline 12-ID-B of the Advanced Photon Source, Argonne National Laboratory. The energy of the X-ray beam was 14 Kev (wavelength λ = 0.8856 Å), and two setups (small- and wide-angle X-ray scattering) were used simultaneously in which the sample to 2M detector distance was adjusted to achieve scattering q values of 0.006 < q < 2.6 Å^−1, where q = (4π/λ)sinθ, and 2θ is the scattering angle. To reduce radiation damage and obtain good statistics, thirty 2D images were recorded for each buffer or sample solution using a flow cell, with an accumulated exposure time of 0.4–2.0 s. No radiation damage was observed as confirmed by the absence of systematic signal changes in sequentially collected X-ray scattering images. The scattering profile of the protein was calculated by subtracting the background buffer contribution from the […] using the program PRIMUS (ATSAS package, EMBL) ([35]). Concentration series measurements for a sample were carried out to remove the scattering contribution caused by interparticle interactions and to extrapolate the data to infinite dilution. Guinier analysis and the experimental radius of gyration (Rg) estimation from the data of infinite dilution were performed using PRIMUS. The pair distance distribution function, P(r), and the maximum dimension of the protein, Dmax, in real space were calculated with the indirect Fourier transform using the program GNOM ([36]). To avoid underestimation of the molecular dimension and consequent distortion in low resolution structural reconstruction, the parameter Dmax, the upper end of distance r, was chosen such that the resulting PDDF has a short, near zero-value tail at large r. The Rg from P(r) analysis was also reported. The molecular weights were estimated using Vc ([37]) in the q range of 0 < q < 0.3 Å^−1. Fifteen ab initio shape reconstructions (molecular envelopes) were generated using DAMMIF ([38]) and averaged with DAMAVER ([39]). The structural models were superimposed and overlaid with the averaged envelope using SUPCOMP ([40]). The theoretical scattering intensity of a structural model was calculated and fitted to the experimental scattering intensity using CRYSOL ([41]).
Table S1 (related to Fig. 1, S1, S4): SAXS parameters for the TTD-PHD module SAXS HTG-TTD-PHDa TTD-PHD/BPCb […]
b UHRF1126-366 in complex with BPC (2 mM, 4% DMSO) […]
d Rg calculated using Guinier fit e Rg calculated using GNOM (5) f Maximum distance between atoms from GNOM g Volume of correlation (6) h Mw estimated from SAXS data using Vc (6). The Mw expected from sequence is shown in parentheses i Normalized spatial discrepancy. The values are the average and standard deviation from fifteen runs

[1] = 2 mM BPC, 4% DMSO, GNOM, Table S1

Dmax of TTD-PHD with BPC [1]: 94 Å
Rg real (GNOM) of TTD-PHD with BPC [1]: 27.1 Å
Rg (Guinier fit) of TTD-PHD with BPC (2 mM BPC, 4% DMSO, Guinier fit, Table S1): 26.6 Å
Vc (volume of correlation) of TTD-PHD with BPC (2 mM BPC, 4% DMSO, Table S1): 280.5
Rg (Guinier fit) of TTD–PHD with BPC (4 mM BPC, 4% DMSO, 20 mM Tris pH 7.5, 150 mM NaCl, Guinier fit, apo 24.5): 27.1 Å
Vc (volume of correlation) of TTD–PHD with BPC (4 mM BPC, 4% DMSO, apo 274.3): 284.4
Rg real (GNOM) of TTD–PHD with BPC (4 mM BPC, 4% DMSO, from GNOM, apo 24.9): 27.2 Å
Dmax of TTD–PHD with BPC (4 mM BPC, 4% DMSO, from GNOM, apo 83): 94 Å
shallow secondary shoulder of pair-distance distribution function (TTD–PHD with BPC (4 mM, 4% DMSO)): ~50 Å
Compound: N=C(N)N1CCC(Cc2ccccc2)CC1 [BPC, 4-benzylpiperidine-1-carboximidamide]
